Data: patent US20100273656A1, “COMPOSITION AND METHOD FOR SELECTIVE HERBICIDE” (priority 2002, published 2010)

Assays:
dandelions = assay: Example 10 FeHEDTA at 0.1% and 0.2% Fe on potted dandelions; type: in vivo, Taraxacum officinale
Method: This test investigated using 0.1% (17.9 mM) and 0.2% (35.8 mM) iron, as FeHEDTA, to kill potted dandelions. The solutions contained 10% excess chelating agent.
Small (12 cm diameter) to medium (20 cm diameter) sized, greenhouse-grown dandelions were used. These sizes of dandelions are typically found in lawns. The plants were re-sprayed 7 days after the first spray.

daisy (Bellis perennis) = assay: Example 11 field test, daisy in lawn; type: in vivo
Method: Killex® (Green Cross, Ontario, Canada) is a commonly used selective lawn herbicide and was included in several field tests as a standard. Killex contains 2,4-D (9.5%), mecoprop (5%) and dicamba (0.9%). The product was diluted 6 ml into 1 L of water solution and applied at rate of 200 ml/m^2, as per label instructions.
This test investigated the effect of FeHEDTA and a mixture of FeEDDS and FeMGDA on daisy (Bellis perennis), dandelion (Taraxacum officinale) and a turf bentgrass (Agrostis sp.). The chelating agents were used at one and a half times the molar amount of iron. The FeHEDTA solutions contained 0.2% iron (35.8 mM). The commercially prepared FeHEDTA product from the Monterey Chemical Company (CA, USA) was used as a standard. The (FeEDDS+FeMGDA) solutions contained 0.4% iron (71.6 mM) and the same molar amount of EDDS and MGDA. The solutions were made from NaEDDS (Octaquest E30, Octel) and NaMGDA (Trilon M liquid, BASF, Germany). Ammonium sulfate was added at a concentration of 1%. Killex (Solaris ON, Canada) was diluted and applied as per label instructions of 6 ml/L applied at 200 ml/m^2.
The daisy (0.25 m^2) and dandelion (0.5 m^2) test plots were in different areas of the bentgrass field. The dandelions were large, averaging 30 cm in diameter. The daisy patches were between 10 and 20 cm in diameter. The plants were sprayed weekly 4 times.

[1] = tested on: chickweed scarlet pimpernel (Anagallis arvensis); assay: Example 12 FeHEDTA field test, chickweed scarlet pimpernel; type: in vivo; conditions: for Survival of Chickweed Plants (%): day 7/day 0
Method: This test evaluated FeHEDTA with 0.15% and 0.2% Fe for controlling the chickweed scarlet pimpernel (Anagallis arvensis) and dandelion (Taraxacum officinale). The solution contained 1.3 times the molar amount of chelating agent as iron. Field areas of well established chickweed and dandelion (0.5 m^2) were sprayed at a rate of 100 ml/m^2.

perennial ryegrass [2] = assay: Example 17 iron chelates with Killex, perennial ryegrass; type: in vivo
Method: (§1) Plants were fertilized with an all purpose water-soluble fertilizer mix of 20-20-20 (N-P-K; Plant-Prod®) as needed. All broadleaf weeds were grown individually in a 2¼-inch pot until they were a suitable size for herbicide tests (actual weed size is reported in examples below). Perennial ryegrass was also grown in 2¼-inch pots, however many grass seeds were sown in the pot to simulate a small section of turf. Grass plants were continually trimmed to a height of 4 cm, simulating that of a homeowner's lawn. For field tests, plots ¼ m^2 in size were marked out in areas containing the targeted broadleaf weed species growing in turf grass. Plots were continually mowed to simulate a homeowner's lawn. […] In all of the examples, the amounts of the various herbicide components are identified as a percent on a weight basis.
(§2) Killex® (Scotts Canada, Ltd., Ontario, Canada) is a commonly used selective lawn herbicide and was used as the commercial herbicide for herbicide combinations. The labeled dilution and application rates for Killex® are 6 ml into 1 L of solution (0.6%) applied at 200 ml/m^2.
(§3) All visual plant damage assessments were made using a quantitative rating scale; percent control relative to the untreated check (0=no effect; 100=plant death).
(§4) Materials and Methods: This trial was conducted in the greenhouse. Nine pots of white clover and 10 pots of perennial ryegrass were selected for each treatment. Herbicidal solutions were prepared using deionized water. The treatments were applied using a handheld trigger sprayer at 200 ml/m^2. All treatments were applied once. Phytotoxicity (%) was assessed 4, 7, and 14 days after application (A4, A7, and A14).

perennial ryegrass [3] = assay: Example 19 FeHEDTA with Killex at reduced rates, perennial ryegrass; type: in vivo; conditions: Killex ® 0%, 7 days after application
Method: as §1, §2, §3
as §4, with “Ten broadleaf plantain plants” for “Nine pots of white clover”, “5” for “10”, “Herbicide” for “Herbicidal”, “hand-trigger” for “handheld trigger”, “7” for “4, 7, and 14”, “(A7).” for “(A4, A7, and A14).”

perennial ryegrass [4] = assay: Example 21 Fe chelates with Killex, perennial ryegrass; type: in vivo; conditions: A29 = 29 days after treatment
Method: as §1, §2, §3
Materials and Methods: This trial was conducted in the greenhouse. […] Phytotoxicity (%) was assessed 29 days after treatment (A29).

white clover = assay: Example 22 field test FeIDS and/or FeHEDTA with Killex, white clover; type: in vivo; conditions: A7 = 7 days after treatment
Method: as §1, with “basis. […]” for “basis.”
as §3
(§5) Materials and Methods: Plots ¼ m^2 in size were marked out in white clover and Park Lawn (turfgrass mixture comprising of 65% perennial ryegrass, 25% chewings/creeping red fescue and 10% Kentucky bluegrass) area in the field. […] Phytotoxicity (%) was assessed on 7 days after treatment (A7).

Park Lawn = assay: Example 22 field test FeIDS and/or FeHEDTA with Killex, Park Lawn; type: in vivo; conditions: A7 = 7 days after treatment
Method: as §1, with “basis. […]” for “basis.”
as §3, §5

## O=C([O-])CN(CCO)CCN(CC(=O)[O-])CC(=O)[O-].[Fe+3] [FeHEDTA]
dandelions; 12 to 20 cm diameter dandelions
  susceptibility of dandelions, in words: very susceptible
dandelions; dandelion diameter 12 cm, 7 + 6 days (re-sprayed after 7 days)
  Dead Dandelions (#/10): 10 #/10
dandelions; dandelion diameter 12 cm, 6 days after spraying, listed as FeHEDTA (0.1% Fe)
  Dead Dandelions (#/10): 2 #/10
dandelions; dandelion diameter 12 cm, 6 days after spraying, listed as FeHEDTA (0.2% Fe)
  Dead Dandelions (#/10): 8 #/10
dandelions; dandelion diameter 16 cm, 7 + 6 days, listed as FeHEDTA (0.1% Fe)
  Dead Dandelions (#/10): 3 #/10
dandelions; dandelion diameter 16 cm, 7 + 6 days, listed as FeHEDTA (0.2% Fe)
  Dead Dandelions (#/10): 10 #/10
dandelions; dandelion diameter 16 cm, 6 days after spraying, listed as FeHEDTA (0.1% Fe)
  Dead Dandelions (#/10): 1 #/10
dandelions; dandelion diameter 16 cm, 6 days after spraying, listed as FeHEDTA (0.2% Fe)
  Dead Dandelions (#/10): 3 #/10
dandelions; dandelion diameter 20 cm, 7 + 6 days, listed as FeHEDTA (0.1% Fe)
  Dead Dandelions (#/10): 3 #/10
dandelions; dandelion diameter 20 cm, 7 + 6 days, listed as FeHEDTA (0.2% Fe)
  Dead Dandelions (#/10): 8 #/10
dandelions; dandelion diameter 20 cm, 6 days after spraying, listed as FeHEDTA (0.1% Fe)
  Dead Dandelions (#/10): 0 #/10
dandelions; dandelion diameter 20 cm, 6 days after spraying, listed as FeHEDTA (0.2% Fe)
  Dead Dandelions (#/10): 1 #/10
Daisy (Bellis perennis); day 0 (start of test)
  Plot Area Covered by Daisy Plants (%): 60%
Daisy (Bellis perennis); day 2
  Daisy Necrosis (%): 20%
Daisy (Bellis perennis); day 10
  Daisy Necrosis (%): 95%
Daisy (Bellis perennis); day 13, sprayed weekly 4 times
  Plot Area Covered by Daisy Plants (%): 1%
Daisy (Bellis perennis); day 16
  Daisy Necrosis (%): 98%
Daisy (Bellis perennis); day 21
  Plot Area Covered by Daisy Plants (%): 2%
Daisy (Bellis perennis); day 23
  Daisy Necrosis (%): 98%
Daisy (Bellis perennis); day 30
  Plot Area Covered by Daisy Plants (%): 0.5%
[1]; 7 days after spraying, listed as FeHEDTA (0.15% Fe)
  Chickweed Plants (#/0.5 m^2): 8 #/0.5 m^2
[1]; 7 days after spraying, listed as FeHEDTA (0.20% Fe)
  Chickweed Plants (#/0.5 m^2): 4 #/0.5 m^2
[1]; Example 12, text
  numbers of chickweed plants, in words: significantly reduced
[1]; day 0, listed as FeHEDTA (0.15% Fe)
  Chickweed Plants (#/0.5 m^2): 15 #/0.5 m^2
[1]; day 0, listed as FeHEDTA (0.20% Fe)
  Chickweed Plants (#/0.5 m^2): 25 #/0.5 m^2
[1]; listed as FeHEDTA (0.15% Fe)
  Survival of Chickweed Plants (%): 53%
[1]; listed as FeHEDTA (0.20% Fe)
  Survival of Chickweed Plants (%): 16%
Perennial ryegrass [2]; A4
  Phytotoxicity (%) against perennial ryegrass: 8%
Perennial ryegrass [2]; A7
  Phytotoxicity (%) against perennial ryegrass: 7%
Perennial ryegrass [2]; A14
  Phytotoxicity (%) against perennial ryegrass: 1%
Perennial ryegrass [3]; listed as FeHEDTA 0.1% Fe
  A7 Phytotoxicity (%) against perennial ryegrass: 1%
Perennial ryegrass [3]; listed as FeHEDTA 0.2% Fe
  A7 Phytotoxicity (%) against perennial ryegrass: 1%
Perennial ryegrass [3]; listed as FeHEDTA 0.4% Fe
  A7 Phytotoxicity (%) against perennial ryegrass: 2%
Perennial ryegrass [4]
  Phytotoxicity (%) on perennial ryegrass: 0%
White clover
  Phytotoxicity (%) against white clover: 48%
Park Lawn
  Phytotoxicity (%) on Park Lawn: 3%
